Measurements from patent US8618289B2 (Ambit Biosciences Corporation, priority 2008, dated 2013).

Key:
[1] = tested on: 290 distinct kinases tested excluding mutant variants (321 in the larger panel); conditions: no asterisk: panel of 290 distinct kinases
Description: Competition binding assays used herein were developed, validated and performed as described in Fabian et al., Nature Biotechnology 2005, 23, 329-336. […] The liganded beads were blocked with excess biotin and washed with blocking buffer (SeaBlock (Pierce), 1% BSA, 0.05% Tween 20, 1 mM DTT) to remove unbound ligand and to reduce non-specific binding. […] Test compounds were prepared as 100× stocks in DMSO and rapidly diluted into the aqueous environment. DMSO was added to control assays lacking a test compound. Primary screen interactions were performed in polypropylene 384-well plates in a final volume of 34 μt, while Kd determinations were performed in polystyrene 96-well plates in a final volume of 135 pt. […] The kinase concentration in the eluates was measured by quantitative PCR. Each kinase was tested individually against each compound. Kds were determined using eleven serial threefold dilutions. A selectivity score, which is a quantitative measure of selectivity of a compound against a panel of enzymes, may be calculated for a compound by dividing the number of enzymes for which a compound meets a set criteria, (for example, a binding constant of 100 nM or less), by the total number of enzymes tested. […] (Note, for those compounds tested in a larger kinase panel, as indicated by an asterisk (*) next to the S35 score, the divisor is 321 (i.e. the larger panel contains 321 distinct kinases, excluding mutant variants.)).

RAF kinases [2] = molecular target: RAF kinases (Homo sapiens, UniProt P04049); conditions: read-out: RAF1 Kd; RAF1
RAF kinases [3] = molecular target: RAF kinases (Homo sapiens, UniProt P15056); conditions: read-out: BRAF WT Kd; BRAF WT
RAF kinases [4] = molecular target: RAF kinases (Homo sapiens, UniProt P15056, V600E); test: biochemical
Sequence of RAF kinases (Homo sapiens, UniProt P15056, V600E) (P15056 whole entry V600E): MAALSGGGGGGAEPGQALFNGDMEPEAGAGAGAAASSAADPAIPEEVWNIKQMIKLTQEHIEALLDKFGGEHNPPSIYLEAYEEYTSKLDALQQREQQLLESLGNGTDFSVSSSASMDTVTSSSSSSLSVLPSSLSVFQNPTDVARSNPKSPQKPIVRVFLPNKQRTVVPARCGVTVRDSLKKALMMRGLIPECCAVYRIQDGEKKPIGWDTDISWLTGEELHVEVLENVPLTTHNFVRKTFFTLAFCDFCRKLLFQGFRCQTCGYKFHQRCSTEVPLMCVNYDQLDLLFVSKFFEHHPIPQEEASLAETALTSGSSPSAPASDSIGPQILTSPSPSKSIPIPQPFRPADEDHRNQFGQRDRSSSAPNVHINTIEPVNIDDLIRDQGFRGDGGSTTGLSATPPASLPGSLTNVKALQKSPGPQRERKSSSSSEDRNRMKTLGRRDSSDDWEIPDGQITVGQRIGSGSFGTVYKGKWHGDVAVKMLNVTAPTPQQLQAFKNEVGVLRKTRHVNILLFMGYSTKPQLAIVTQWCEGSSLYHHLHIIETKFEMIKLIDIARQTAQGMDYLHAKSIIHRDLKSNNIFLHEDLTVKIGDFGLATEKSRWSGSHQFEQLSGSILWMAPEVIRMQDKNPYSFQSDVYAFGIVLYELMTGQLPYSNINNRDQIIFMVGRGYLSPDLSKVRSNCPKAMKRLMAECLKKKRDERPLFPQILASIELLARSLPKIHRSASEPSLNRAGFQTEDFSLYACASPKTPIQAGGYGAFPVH

[5] = tested on: MEK1 phosphorylation in the A375 human melanoma cell line; test: cells; conditions: A-375, read-out: pMEK IC50
Erk1/2 = conditions: carrageenan-induced pleurisy rat model; Sawatzky et al.; cited from earlier work
[6] = tested on: tumor growth or metastases; conditions: preclinical studies; Sharma et al.; cited from earlier work

Sequence of RAF kinases (Homo sapiens, UniProt P04049) (P04049 whole entry): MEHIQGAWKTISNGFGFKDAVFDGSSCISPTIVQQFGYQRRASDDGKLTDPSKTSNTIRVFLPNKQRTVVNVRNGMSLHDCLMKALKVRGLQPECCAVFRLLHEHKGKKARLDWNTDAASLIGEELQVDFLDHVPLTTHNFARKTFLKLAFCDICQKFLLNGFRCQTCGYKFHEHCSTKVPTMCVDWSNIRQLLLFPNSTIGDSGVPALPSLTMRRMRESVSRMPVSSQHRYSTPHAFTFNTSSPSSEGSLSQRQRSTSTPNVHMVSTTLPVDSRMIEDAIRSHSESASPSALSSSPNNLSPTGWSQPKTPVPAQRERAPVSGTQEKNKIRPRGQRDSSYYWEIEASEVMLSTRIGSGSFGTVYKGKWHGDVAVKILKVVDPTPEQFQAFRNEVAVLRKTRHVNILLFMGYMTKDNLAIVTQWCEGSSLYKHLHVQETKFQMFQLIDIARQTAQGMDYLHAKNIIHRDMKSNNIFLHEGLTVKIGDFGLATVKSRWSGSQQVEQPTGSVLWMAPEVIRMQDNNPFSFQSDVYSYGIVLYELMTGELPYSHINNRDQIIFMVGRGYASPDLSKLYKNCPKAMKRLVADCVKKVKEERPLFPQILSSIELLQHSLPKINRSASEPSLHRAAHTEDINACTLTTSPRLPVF
Sequence of RAF kinases (Homo sapiens, UniProt P15056) (P15056 whole entry): as the sequence (P15056 whole entry V600E) above, with E600V counted along it

SMILES	S35 [1]	Kd (RAF kinases [2]) [nM]	Kd (RAF kinases [3]) [nM]	Kd (RAF kinases [4]) [nM]	IC50 [5] [nM]	eosinophilic proinflammatory cytokine release (Erk1/2)	tumor growth or metastases in animals [6]
COc1cc2ncnc(Sc3cccc(NC(=O)Nc4cc(C(C)(C)C)nn4-c4ccccc4Cl)c3)c2cc1OC [Ex 341, 1-(3-tert-butyl-1-(2-chlorophenyl)-1H-pyrazol-5-yl)-3-(3-(6,7-dimethoxyquinazolin-4-ylthio)phenyl)urea]	C (0.20 < C ≦ 0.40)	> 1000	> 1000	250 to 500	< 250		
COc1cc2ncnc(Oc3cccc(NC(=O)Nc4cc(C(C)(C)C)nn4-c4ccccc4C)c3)c2cc1OC [Ex 342, 1-(3-tert-butyl-1-o-tolyl-1H-pyrazol-5-yl)-3-(3-(6,7-dimethoxyquinazolin-4-yloxy)phenyl)urea]	D (D > 0.40)	> 1000	> 1000	250 to 500	< 250		
COc1cc2ncnc(Sc3cccc(NC(=O)Nc4cc(C(C)(C)C)nn4-c4ccccc4C)c3)c2cc1OC [Ex 343, 1-(3-tert-butyl-1-o-tolyl-1H-pyrazol-5-yl)-3-(3-(6,7-dimethoxyquinazolin-4-ylthio)phenyl)urea]	C (0.20 < C ≦ 0.40)	> 1000	> 1000	250 to 500	< 250		
COc1cc2ncnc(Oc3cccc(NC(=O)Nc4cc(C(C)(C)C)nn4-c4ccccn4)c3)c2cc1OC [Ex 344, 1-(3-tert-Butyl-1-(pyridin-2-yl)-1H-pyrazol-5-yl)-3-(3-(6,7-dimethoxyquinazolin-4-yloxy)phenyl)urea]	C (0.20 < C ≦ 0.40)	> 1000	> 1000	500 to 1000	500 to 1000		
COc1cc2ncnc(Sc3cccc(NC(=O)Nc4cc(C5(C(F)(F)F)CC5)nn4-c4ccc(C)cc4)c3)c2cc1OC [Ex 347, 1-(3-(6,7-dimethoxyquinazolin-4-ylthio)phenyl)-3-(1-p-tolyl-3-(1-(trifluoromethyl)cyclopropyl)-1H-pyrazol-5-yl)urea]	D (D > 0.40)	> 1000	> 1000	250 to 500	< 250		
COc1cccc(-c2cc(=O)c3ccccc3o2)c1N [PD98059]						inhibits eosinophilic proinflammatory cytokine release	
CNC(=O)c1cc(Oc2ccc(NC(=O)Nc3ccc(Cl)c(C(F)(F)F)c3)cc2)ccn1 [Sorafenib]							decrease in tumor growth or metastases
